Measured values: ChEMBL document CHEMBL5608141, “Identification of compartment-specific drug sensitivities in CRC organoid-stroma co-cultures” (2024)

Columns and labels:
Format in all cases: functional, Homo sapiens
Parameters in all cases: dose or concentration left out as unconfirmed
[1] = tested on: Colon cancer organoid; test: Identification of compartment-specific drug sensitivities in O06 CRC organoid-stroma F06 CAF co-cultures. Organoid is transduced with Lucferase2-P2A-EGFP lentivirus, fibroblast with Renilla-dsRed lentivirus. Dual-Glo Luciferase assay is used to report viability data.
[2] = tested on: Colon cancer organoid; test: Identification of compartment-specific drug sensitivities in O14 CRC organoid-stroma F14 CAF co-cultures. Organoid is transduced with Lucferase2-P2A-EGFP lentivirus, fibroblast with Renilla-dsRed lentivirus. Dual-Glo Luciferase assay is used to report viability data.
[3] = tested on: Colon cancer organoid; test: Identification of compartment-specific drug sensitivities in O20 CRC organoid-stroma F20 CAF co-cultures. Organoid is transduced with Lucferase2-P2A-EGFP lentivirus, fibroblast with Renilla-dsRed lentivirus. Dual-Glo Luciferase assay is used to report viability data.
[4] = Transduced with Lucferase2-P2A-EGFP lentivirus
[5] = Transduced with Renilla-dsRed lentivirus

Cc1c(N2CCNCC2)nc2ccc(Br)cc2c1C(=O)NC[C@H](CCC(=O)O)c1ccccc1Cl [BAY-403]
Cell Viability [1, 4]: 78.4474% | Cell Viability [1, 5]: 70.4581% | Cell Viability [2, 4]: 117.744% | Cell Viability [2, 5]: 98.3874% | Cell Viability [3, 4]: 121.312% | Cell Viability [3, 5]: 79.2483%

CN(C)c1ncnc(-c2ccc3nc(Nc4cc(CN5CCN(C(=O)CC(F)(F)F)CC5)ccn4)[nH]c3c2)c1Cl [BAY-440]
Cell Viability [1, 4]: 110.52% | Cell Viability [1, 5]: 104.43% | Cell Viability [2, 4]: 161.186% | Cell Viability [2, 5]: 109.54% | Cell Viability [3, 4]: 123.006% | Cell Viability [3, 5]: 109.622%

Cc1noc([C@H]2C[C@@H](c3ccc(C(F)(F)F)cc3)CN(C(=O)N3CCS(=O)(=O)C3)C2)n1 [BAY-448]
Cell Viability [1, 4]: 64.3289% | Cell Viability [1, 5]: 114.596% | Cell Viability [2, 4]: 114.601% | Cell Viability [2, 5]: 94.3368% | Cell Viability [3, 4]: 115.252% | Cell Viability [3, 5]: 84.5218%

CC1=C(C#N)C(c2ccc3[nH]nc(C)c3c2)C(C#N)=C(C)N1 [BAY-474]
Cell Viability [1, 4]: 116.723% | Cell Viability [1, 5]: 162.783% | Cell Viability [2, 4]: 60.4688% | Cell Viability [2, 5]: 119.272% | Cell Viability [3, 4]: 81.7867% | Cell Viability [3, 5]: 102.241%

CC(=O)C1=C(C)N(c2cccc(C(F)(F)F)c2)C(=O)N[C@H]1c1ccc(C#N)nc1 [BAY-677]
Cell Viability [1, 4]: 73.3465% | Cell Viability [1, 5]: 89.4043% | Cell Viability [2, 4]: 123.312% | Cell Viability [2, 5]: 108.035% | Cell Viability [3, 4]: 134.265% | Cell Viability [3, 5]: 107.791%

CC(=O)C1=C(C)N(c2cccc(C(F)(F)F)c2)C(=O)N[C@@H]1c1ccc(C#N)nc1 [BAY-678]
Cell Viability [1, 4]: 95.8481% | Cell Viability [1, 5]: 136.382% | Cell Viability [2, 4]: 146.251% | Cell Viability [2, 5]: 119.353% | Cell Viability [3, 4]: 140.099% | Cell Viability [3, 5]: 133.591%

Cc1nc(C2CCN(C(=O)c3ccc(OC(F)(F)F)cc3N)CC2)c2ncc(N3CCN(C)CC3)cc2n1 [BAY-693]
Cell Viability [1, 4]: 114.208% | Cell Viability [1, 5]: 166.908% | Cell Viability [2, 4]: 77.0919% | Cell Viability [2, 5]: 74.1942% | Cell Viability [3, 4]: 93.6142% | Cell Viability [3, 5]: 129.276%

O=C(O)[C@@H]1[C@@H](Cn2nnc3ccccc3c2=O)CC[C@H]1C(=O)c1ccc(OCCC2CCOCC2)cc1 [BAY-694]
Cell Viability [1, 4]: 99.0718% | Cell Viability [1, 5]: 68.3581% | Cell Viability [2, 4]: 127.223% | Cell Viability [2, 5]: 103.773% | Cell Viability [3, 4]: 92.0939% | Cell Viability [3, 5]: 91.7477%

O=C(NCc1ncc(C(F)(F)F)cc1Cl)c1ccc2c(c1)C1(CCS(=O)(=O)CC1)[C@@H](C1CC1)N2S(=O)(=O)c1ccc(F)cc1 [BAY-786]
Cell Viability [1, 4]: 81.2723% | Cell Viability [1, 5]: 52.1511% | Cell Viability [2, 4]: 85.8201% | Cell Viability [2, 5]: 92.0831% | Cell Viability [3, 4]: 102.274% | Cell Viability [3, 5]: 106.984%

Cc1c(NC(=O)c2cc(C(N)=O)nc3cc(F)ccc23)c(C(F)(F)F)nn1Cc1ccc(C#N)cc1 [BAY-876]
Cell Viability [1, 4]: 11.8045% | Cell Viability [1, 5]: 337.56% | Cell Viability [2, 4]: 20.1463% | Cell Viability [2, 5]: 59.1997% | Cell Viability [3, 4]: 13.842% | Cell Viability [3, 5]: 190.785%

CN1CCN(c2cnc3c(C4CCN(C(=O)c5ccc(OC(F)(F)F)cc5N)CC4)ncnc3c2)CC1 [BAY-885]
Cell Viability [1, 4]: 128.922% | Cell Viability [1, 5]: 132.533% | Cell Viability [2, 4]: 91.6174% | Cell Viability [2, 5]: 96.8328% | Cell Viability [3, 4]: 78.4575% | Cell Viability [3, 5]: 141.163%

O=C(Nc1cnc(Oc2ccc(F)cc2)nc1)N1CCc2ncccc2[C@@H]1c1ccc(F)cc1 [BAY-899]
Cell Viability [1, 4]: 92.2798% | Cell Viability [1, 5]: 100.101% | Cell Viability [2, 4]: 105.834% | Cell Viability [2, 5]: 99.8567% | Cell Viability [3, 4]: 151.912% | Cell Viability [3, 5]: 104.61%

CC1=C(C#N)C(c2ccc3c(c2)c(NC(=O)c2ccccc2C)nn3C)C(C#N)=C(C)N1 [BAY-974]
Cell Viability [1, 4]: 90.4588% | Cell Viability [1, 5]: 87.5124% | Cell Viability [2, 4]: 92.3005% | Cell Viability [2, 5]: 117.089% | Cell Viability [3, 4]: 105.235% | Cell Viability [3, 5]: 128.576%

C[C@H](c1ccnc(Nc2nc3ccc(-c4cc(N(C)C)ncn4)cc3[nH]2)c1)N1CCN(C(=O)CC(F)(F)F)CC1 [BAY-985]
Cell Viability [1, 4]: 137.072% | Cell Viability [1, 5]: 142.411% | Cell Viability [2, 4]: 130.529% | Cell Viability [2, 5]: 136.274% | Cell Viability [3, 4]: 129.711% | Cell Viability [3, 5]: 125.86%
